The term pIC50 denotes the IC50 on a negative log10 scale, so that one unit is a factor of ten. Read a low pIC50 as a large IC50.

The structures appear in SMILES notation. pIC50: −log10 of the molar value.

We go through 1 compound from US8513283B2, “Spiro substituted compounds as angiogenesis inhibitors” (Advenchen Laboratories, LLC, priority 2007, dated 2013).

Assay [1] concerns human colon cancer HT29 xenograft. Description: animal antitumor activity, HT29 xenograft. It is filed as in vivo, mice. The settings on record: FIG. 1.
The target of assay [2] is Flt1(h) (Homo sapiens, UniProt P17948). Nature of the assay: in vitro tyrosine kinase inhibition. It counts as biochemical. The text has this: (§1) Several in vitro tyrosine kinase inhibition activities can be measured according to the description in Rewcastle, G W, J. Med. Chem. 1996, 39, 918-928 and Edwards M, International Biotechnology Lab 5 (3), 19-25, 1987. Oncogene, 1990, 5: 519-524. The Baculovirus Expression System: A Laboratory Guide, L. A. King 1992. Sambrook et al, 1989, Molecular cloning—A Laboratory Manual, 2nd edition, Cold Spring Harbour Laboratory Press. O'Reilly et al, 1992, Baculovirus Expression Vectors—A Laboratory Manual, W. H. Freeman and Co, New York.
(§2) Receptor tyrosine kinase can be obtained in partially purified form from A-431 cells similar to those described by Carpenter et al., J. Biol. Chem., 1979, 254, 4884, Cohen et al., J. Biol. Chem., 1982, 257, 1523 and by Braun et al., J. Biol. Chem., 1984, 259, 2051. Some of these tests can also be contracted with Millipore Upstate Ltd for screening.

The target of assay [3] is cKit(h) (Homo sapiens, UniProt P10721). Nature of the assay: in vitro tyrosine kinase inhibition. It counts as biochemical.
Description: as §1, §2

Assay [4] concerns the target Flt4(h) (Homo sapiens, UniProt P35916). Nature of the assay: in vitro tyrosine kinase inhibition. It counts as biochemical.
Description: as §1, §2

The target of assay [5] is PDGFRα(h) (Homo sapiens, UniProt P16234). Nature of the assay: in vitro tyrosine kinase inhibition. It is filed as biochemical.
Description: as §1, §2

In assay [6] the test system is human liver cancer Bel-7402 xenograft. Description: animal antitumor activity, Bel-7402 xenograft. It counts as in vivo, mice. The settings on record: FIG. 2.
The target in assay [7] is c-RAF(h) (Homo sapiens, UniProt P04049). Description: in vitro kinase inhibition. It is filed as biochemical.
Description: as §1, §2

Assay [8] has as its target KDR(h) (Homo sapiens, UniProt P35968). Description: in vitro tyrosine kinase inhibition. It counts as biochemical.

Sequence of c-RAF(h) (P04049 whole entry): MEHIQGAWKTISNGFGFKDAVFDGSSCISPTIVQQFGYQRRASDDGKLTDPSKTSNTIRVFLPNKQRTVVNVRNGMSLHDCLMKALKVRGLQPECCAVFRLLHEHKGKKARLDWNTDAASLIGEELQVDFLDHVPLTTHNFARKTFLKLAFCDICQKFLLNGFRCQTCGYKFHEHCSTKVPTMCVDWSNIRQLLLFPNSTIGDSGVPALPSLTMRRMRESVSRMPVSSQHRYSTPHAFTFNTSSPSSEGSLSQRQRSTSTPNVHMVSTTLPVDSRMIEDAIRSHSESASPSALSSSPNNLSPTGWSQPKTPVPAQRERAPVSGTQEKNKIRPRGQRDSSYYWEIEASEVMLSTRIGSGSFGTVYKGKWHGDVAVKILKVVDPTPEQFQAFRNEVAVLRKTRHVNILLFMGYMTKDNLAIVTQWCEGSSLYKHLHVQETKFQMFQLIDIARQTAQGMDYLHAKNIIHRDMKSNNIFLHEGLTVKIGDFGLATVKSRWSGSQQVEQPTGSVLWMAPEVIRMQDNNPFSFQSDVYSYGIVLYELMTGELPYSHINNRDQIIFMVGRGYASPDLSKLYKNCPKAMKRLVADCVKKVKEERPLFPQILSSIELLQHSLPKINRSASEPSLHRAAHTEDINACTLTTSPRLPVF
Sequence of Flt4(h) (P35916 25-1363): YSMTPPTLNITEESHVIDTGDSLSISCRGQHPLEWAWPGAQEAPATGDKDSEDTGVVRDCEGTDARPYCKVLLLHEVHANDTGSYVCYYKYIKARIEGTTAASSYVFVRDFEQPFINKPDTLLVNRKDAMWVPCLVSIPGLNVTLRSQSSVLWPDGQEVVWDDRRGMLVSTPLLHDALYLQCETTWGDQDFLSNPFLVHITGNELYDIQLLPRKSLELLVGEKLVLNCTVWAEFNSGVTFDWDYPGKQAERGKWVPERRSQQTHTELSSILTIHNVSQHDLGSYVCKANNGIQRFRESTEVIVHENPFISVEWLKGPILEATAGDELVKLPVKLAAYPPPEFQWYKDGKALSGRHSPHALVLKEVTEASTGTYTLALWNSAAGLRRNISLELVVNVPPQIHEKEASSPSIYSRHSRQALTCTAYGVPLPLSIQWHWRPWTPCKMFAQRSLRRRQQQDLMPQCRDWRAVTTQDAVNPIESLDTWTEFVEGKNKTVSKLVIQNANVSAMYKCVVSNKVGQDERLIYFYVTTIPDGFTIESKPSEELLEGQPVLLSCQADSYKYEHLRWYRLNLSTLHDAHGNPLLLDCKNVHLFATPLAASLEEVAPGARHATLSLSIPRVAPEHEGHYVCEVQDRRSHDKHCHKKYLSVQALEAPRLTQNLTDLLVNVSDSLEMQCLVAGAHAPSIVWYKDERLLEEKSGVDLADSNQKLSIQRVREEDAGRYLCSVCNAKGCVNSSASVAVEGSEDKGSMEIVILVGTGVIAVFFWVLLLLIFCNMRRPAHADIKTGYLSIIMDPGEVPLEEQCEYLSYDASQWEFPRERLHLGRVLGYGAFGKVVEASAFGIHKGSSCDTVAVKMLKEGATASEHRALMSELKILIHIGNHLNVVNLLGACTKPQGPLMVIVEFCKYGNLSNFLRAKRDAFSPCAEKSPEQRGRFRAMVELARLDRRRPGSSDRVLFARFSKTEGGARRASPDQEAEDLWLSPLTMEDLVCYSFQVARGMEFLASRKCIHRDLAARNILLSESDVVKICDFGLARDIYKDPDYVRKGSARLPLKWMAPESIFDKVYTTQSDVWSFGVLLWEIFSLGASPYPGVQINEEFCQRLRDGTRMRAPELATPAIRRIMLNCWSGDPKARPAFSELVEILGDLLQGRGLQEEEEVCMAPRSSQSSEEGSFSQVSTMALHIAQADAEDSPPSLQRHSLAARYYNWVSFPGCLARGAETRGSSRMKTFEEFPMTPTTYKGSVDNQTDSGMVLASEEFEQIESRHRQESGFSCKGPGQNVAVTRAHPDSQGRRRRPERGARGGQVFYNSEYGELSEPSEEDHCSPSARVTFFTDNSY
Sequence of KDR(h) (P35968 20-1356): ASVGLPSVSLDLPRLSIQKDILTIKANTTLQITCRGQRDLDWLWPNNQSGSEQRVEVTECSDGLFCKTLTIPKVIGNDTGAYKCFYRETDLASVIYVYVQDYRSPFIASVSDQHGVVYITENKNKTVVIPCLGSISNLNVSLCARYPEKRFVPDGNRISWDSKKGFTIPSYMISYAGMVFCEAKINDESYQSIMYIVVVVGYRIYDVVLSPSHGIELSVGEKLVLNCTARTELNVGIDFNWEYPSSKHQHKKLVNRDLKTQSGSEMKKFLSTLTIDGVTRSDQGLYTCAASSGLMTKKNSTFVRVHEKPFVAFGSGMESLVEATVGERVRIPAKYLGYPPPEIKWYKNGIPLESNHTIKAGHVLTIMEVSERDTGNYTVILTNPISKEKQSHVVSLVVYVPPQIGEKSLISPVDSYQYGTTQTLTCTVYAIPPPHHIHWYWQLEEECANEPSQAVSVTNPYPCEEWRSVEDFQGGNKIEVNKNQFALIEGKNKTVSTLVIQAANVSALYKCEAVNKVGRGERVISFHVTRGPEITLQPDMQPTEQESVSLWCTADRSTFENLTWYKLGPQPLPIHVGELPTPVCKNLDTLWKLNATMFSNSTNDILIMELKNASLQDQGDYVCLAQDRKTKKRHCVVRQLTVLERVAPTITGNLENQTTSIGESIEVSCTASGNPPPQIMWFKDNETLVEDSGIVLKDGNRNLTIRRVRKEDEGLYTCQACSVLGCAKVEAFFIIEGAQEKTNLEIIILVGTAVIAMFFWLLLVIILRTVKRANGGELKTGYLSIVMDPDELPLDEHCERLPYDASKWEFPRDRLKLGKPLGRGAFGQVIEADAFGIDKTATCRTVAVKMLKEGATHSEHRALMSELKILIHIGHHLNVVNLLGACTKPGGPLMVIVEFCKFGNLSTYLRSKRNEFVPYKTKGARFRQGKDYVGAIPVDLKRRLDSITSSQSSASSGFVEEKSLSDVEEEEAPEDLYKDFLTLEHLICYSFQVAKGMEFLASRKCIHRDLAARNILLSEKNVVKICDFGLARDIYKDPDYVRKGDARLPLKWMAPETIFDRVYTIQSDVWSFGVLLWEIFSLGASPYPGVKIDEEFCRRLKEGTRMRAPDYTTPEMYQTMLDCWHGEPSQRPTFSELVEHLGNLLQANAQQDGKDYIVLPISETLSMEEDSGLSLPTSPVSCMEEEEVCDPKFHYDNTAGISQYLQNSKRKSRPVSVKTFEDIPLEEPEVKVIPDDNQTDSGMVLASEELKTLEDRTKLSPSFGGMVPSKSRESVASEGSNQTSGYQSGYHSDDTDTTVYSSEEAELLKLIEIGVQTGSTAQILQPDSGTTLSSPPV
Sequence of cKit(h) (P10721 26-976): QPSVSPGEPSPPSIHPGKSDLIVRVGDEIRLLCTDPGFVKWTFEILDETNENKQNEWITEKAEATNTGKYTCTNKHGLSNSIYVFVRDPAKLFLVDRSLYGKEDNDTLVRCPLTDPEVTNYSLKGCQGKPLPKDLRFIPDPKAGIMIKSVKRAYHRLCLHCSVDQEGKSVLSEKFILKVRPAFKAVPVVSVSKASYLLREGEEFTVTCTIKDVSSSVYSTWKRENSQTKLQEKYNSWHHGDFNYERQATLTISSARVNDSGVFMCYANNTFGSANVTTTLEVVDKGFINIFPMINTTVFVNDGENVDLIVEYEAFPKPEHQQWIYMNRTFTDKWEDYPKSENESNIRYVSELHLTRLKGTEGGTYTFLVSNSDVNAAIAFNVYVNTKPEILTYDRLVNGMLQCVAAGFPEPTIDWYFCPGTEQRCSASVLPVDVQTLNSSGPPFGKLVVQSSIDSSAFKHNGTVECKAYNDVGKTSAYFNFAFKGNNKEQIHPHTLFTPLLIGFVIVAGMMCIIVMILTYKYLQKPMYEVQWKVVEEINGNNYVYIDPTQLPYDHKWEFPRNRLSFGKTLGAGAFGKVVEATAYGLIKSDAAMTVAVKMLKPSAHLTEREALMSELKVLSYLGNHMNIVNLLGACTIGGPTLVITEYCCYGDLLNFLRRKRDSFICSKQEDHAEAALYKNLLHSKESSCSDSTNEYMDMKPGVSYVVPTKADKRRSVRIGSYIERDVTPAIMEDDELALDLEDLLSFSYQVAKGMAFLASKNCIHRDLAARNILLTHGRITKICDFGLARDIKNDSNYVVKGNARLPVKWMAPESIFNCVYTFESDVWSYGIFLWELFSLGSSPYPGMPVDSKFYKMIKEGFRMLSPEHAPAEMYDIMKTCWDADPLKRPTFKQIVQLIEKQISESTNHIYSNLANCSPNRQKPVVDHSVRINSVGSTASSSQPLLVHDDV

For the compound `CNC(=O)c1cccc2cc(Oc3ccnc4cc(OCC5(N)CC5)c(OC)cc34)ccc12` [AL3810], the “efficacy on animal model compared with SU11248” value in assay [1] is recorded as “better efficacy than SU11248”. The pIC50 in assay [2] was 8.40; in assay [3], 6.63; in assay [4], 8.70; in assay [5], 6.66; in assay [7], 6.53; in assay [8], 7.82. Also, the “efficacy on animal model compared with Nexavar” value in assay [6] is “better efficacy”.
